US10150762B2, “Trifluoromethyl alcohols as modulators of RORγt” (Janssen Pharmaceutica NV, priority 2014, dated 2018)
Like-named read-outs stand apart in the source and are kept apart here. Marks after values point to notes of the source that are not given here.

What was measured:
[1] = test system: IL-17 production by CD4 T cells; experiment: Human Th17 Assay; assay type: cell-based; conditions: 72 h, read-out: Human Th17 Assay, IC50
Source text: Human Th17 Assay The human Th17 assay tests the effect of RORγt modulatory compounds on IL-17 production by CD4 T cells under conditions which favor Th17 differentiation. Total CD4+ T cells were isolated from the peripheral blood mononuclear cells (PBMC) of healthy donors using a CD4+ T cell isolation kit II, following the manufacturer's instructions (Miltenyi Biotec). […] The final concentrations of antibodies and cytokines (R&D Systems) in differentiation medium were: 3×10^6/mL anti-CD3/CD28 beads (prepared using human T cell activation/expansion kit, Miltenyi Biotec), 10 μg/mL anti-IL4, 10 μg/mL anti-IFNγ, 10 ng/mL IL113, 10 ng/mL IL23, 50 ng/mL IL6, 3 ng/mL TGFβ and 20 U/mL IL2. Cells were cultured at 37° C. and 5% CO2 for 3 days. Supernatants were collected and the accumulated IL-17 in culture was measured by using MULTI-SPOT® Cytokine Plate following manufacture's instruction (Meso Scale Discovery). The plate was read using Sector Imager 6000, and IL-17 concentration was extrapolated from the standard curve. The IC50s were determined by GraphPad.

[2] = molecular target: wild type human RORγt ligand binding domain (RORγt LBD) (Homo sapiens (Human), UniProt P51449); conditions: read-out: ThermoFluor® Assay, Kd
Protocol: This approach is applicable to a wide variety of systems, and rigorous in theoretical interpretation through quantitation of equilibrium binding constants (KD).
The shift in the melting point described as a ΔTm is proportional to the concentration and affinity of the ligand.
RORγt ThermoFluor® Assay Construct
ThermoFluor® experiments were carried out using instruments owned by Janssen Research and Discovery, L.L.C. through its acquisition of 3-Dimensional Pharmaceuticals, Inc. 1,8-ANS (Invitrogen) was used as a fluorescent dye. Protein and compound solutions are dispensed into black 384-well polypropylene PCR microplates (Abgene) and overlayed with silicone oil (1 μL, Fluka, type DC 200) to prevent evaporation.
Fluorescence was measured by continuous illumination with UV light (Hamamatsu LC6) supplied via fiber optic and filtered through a band-pass filter (380-400 nm; >6 OD cutoff). Fluorescence emission of the entire 384-well plate was detected by measuring light intensity using a CCD camera (Sensys, Roper Scientific) filtered to detect 500±25 nm, resulting in simultaneous and independent readings of all 384 wells. Images were collected at each temperature, and the sum of the pixel intensity in a given area of the assay plate was recorded versus temperature. Reference wells contained RORγt without compounds, and the assay conditions were as follows: • 0.065 mg/mL RORγt • 60 μM 1,8-ANS • 100 mM Hepes, pH 7.0 • 10 mM NaCl • 2.5 mM GSH • 0.002% Tween-20

full-length human RORγt [3] = molecular target: T1, full-length human RORγt (Homo sapiens (Human), UniProt P51449); assay type: cell-based; conditions: for IC50: HEK293T cells, Conditions A, read-out: RORγt (FL) Reporter Assay A, IC50
Protocol: (§1) RORγt (full-length human) Reporter Assay:
Luminescence was measured using a BMG LUMIstar OPTIMA plate reader, after addition of 75 μL/well firefly luciferase buffer, followed by 75 μL/well Renilla luciferase buffer.

full-length human RORγt [4] = molecular target: T1, full-length human RORγt; conditions: for IC50: read-out: RORγt (FL) Reporter Assay B or C, IC50, HEK293T cells, Conditions B or C
Source text: as §1
All three provide similar data and can be used interchangeably.

[5] = *** 0.67 μM compound concentration

wild type human RORγt ligand binding domain (RORγt LBD), sequence (P51449 other isoform, or with tags, fused parts or gaps): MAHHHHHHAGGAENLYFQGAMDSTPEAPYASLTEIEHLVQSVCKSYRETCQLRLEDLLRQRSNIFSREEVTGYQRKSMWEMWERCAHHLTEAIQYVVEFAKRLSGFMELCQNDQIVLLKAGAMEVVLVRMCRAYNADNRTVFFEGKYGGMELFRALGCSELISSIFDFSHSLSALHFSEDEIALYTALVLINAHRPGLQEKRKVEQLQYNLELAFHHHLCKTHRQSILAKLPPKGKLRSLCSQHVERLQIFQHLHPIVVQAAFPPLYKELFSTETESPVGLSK
T1 sequence (P51449 other isoform, or with tags, fused parts or gaps): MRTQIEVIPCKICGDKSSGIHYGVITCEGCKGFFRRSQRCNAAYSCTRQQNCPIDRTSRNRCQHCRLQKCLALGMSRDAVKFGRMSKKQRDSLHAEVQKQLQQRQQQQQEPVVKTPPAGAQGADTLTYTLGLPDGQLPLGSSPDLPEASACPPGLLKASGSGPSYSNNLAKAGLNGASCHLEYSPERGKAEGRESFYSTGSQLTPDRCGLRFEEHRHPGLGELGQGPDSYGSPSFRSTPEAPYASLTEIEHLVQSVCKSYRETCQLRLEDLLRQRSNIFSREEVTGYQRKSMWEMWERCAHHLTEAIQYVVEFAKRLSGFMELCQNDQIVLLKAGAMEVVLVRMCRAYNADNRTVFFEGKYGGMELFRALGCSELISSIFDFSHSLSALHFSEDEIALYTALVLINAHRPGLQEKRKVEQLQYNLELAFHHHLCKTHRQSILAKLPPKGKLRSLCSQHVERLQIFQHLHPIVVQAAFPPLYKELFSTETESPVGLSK

| Structure (SMILES) | Kd [2] [nM] | RORγt (FL) Reporter Assay A, % inhibition (full-length human RORγt [3]; ** 2 μM compound concentration) | IC50 (full-length human RORγt [3]) [nM] | other results |
| --- | --- | --- | --- | --- |
| Cc1cc(C(O)(C(F)(F)F)C(F)(F)F)ccc1-c1sc(C(=O)NCC(C)(C)O)nc1C(=O)N1CCC[C@@H]1C [Example 19, (S)-5-(4-(1,1,1,3,3,3-Hexafluoro-2-hydroxypropan-2-yl)-2-methylphenyl)-N-(2-hydroxy-2-methylpropyl)-4-(2-methylpyrrolidine-1-carbonyl)thiazole-2-carboxamide] | – | – | – | IC50 ([1]; IL-17 in supernatant, 3 days culture): 55 nM |
| CC(C)(O)CNC(=O)c1nc(C(=O)N2CCC(F)CC2)c(-c2ccc(C(O)(C(F)(F)F)C(F)(F)F)c(Cl)c2Cl)s1 [Example 2/10, 5-(2,3-Dichloro-4-(1,1,1,3,3,3-hexafluoro-2-hydroxypropan-2-yl)phenyl)-4-(4-fluoropiperidine-1-carbonyl)-N-(2-hydroxy-2-methylpropyl)thiazole-2-carboxamide] | 13 | 105** % | 25 | – |
| C[C@@H]1CCCN1C(=O)c1nc(C(=O)NCC(C)(C)O)sc1-c1ccc(C(O)(C(F)(F)F)C(F)(F)F)c(Cl)c1Cl [Example 2/16, (R)-5-(2,3-dichloro-4-(1,1,1,3,3,3-hexafluoro-2-hydroxypropan-2-yl)phenyl)-N-(2-hydroxy-2-methylpropyl)-4-(2-methylpyrrolidine-1-carbonyl)thiazole-2-carboxamide] | – | 86** % | – | – |
| C[C@H]1CCCN1C(=O)c1nc(C(=O)NCC(C)(C)O)sc1-c1ccc(C(O)(C(F)(F)F)C(F)(F)F)c(Cl)c1Cl [Example 2/8, (S)-5-(2,3-Dichloro-4-(1,1,1,3,3,3-hexafluoro-2-hydroxypropan-2-yl)phenyl)-N-(2-hydroxy-2-methylpropyl)-4-(2-methylpyrrolidine-1-carbonyl)thiazole-2-carboxamide] | – | 103** % | – | RORγt (FL) Reporter Assay B or C, % inhibition (full-length human RORγt [4]; ** 2 μM compound concentration): 108** %; IC50 [1]: 17 nM |
| CCN(CC)C(=O)c1nc(C(=O)N2C[C@H](O)C[C@H](O)C2)sc1-c1ccc(C(O)(C(F)(F)F)C(F)(F)F)c(Cl)c1Cl [Example 3/4] | 10 | 100** % | 14 | – |
| C[C@H]1C[C@@H](F)CCN1C(=O)c1nc(C(=O)NCC(C)(C)O)sc1-c1ccc(C(O)(C(F)(F)F)C(F)(F)F)c(Cl)c1Cl [Example 2/1, 5-(2,3-Dichloro-4-(1,1,1,3,3,3-hexafluoro-2-hydroxypropan-2-yl)phenyl)-4-((2S,4S)-4-fluoro-2-methylpiperidine-1-carbonyl)-N-(2-hydroxy-2-methylpropyl)thiazole-2-carboxamide] | 0.16 | 103** % | 14 | – |
| C[C@H]1CCCN1C(=O)c1nc(C(=O)NCC(C)(C)O)sc1-c1ccc(C(O)(C(F)(F)F)C(F)(F)F)cc1Cl [Example 15/10, (S)-5-(2-Chloro-4-(1,1,1,3,3,3-hexafluoro-2-hydroxypropan-2-yl)phenyl)-N-(2-hydroxy-2-methylpropyl)-4-(2-methylpyrrolidine-1-carbonyl)thiazole-2-carboxamide] | 0.26 | – | – | RORγt (FL) Reporter Assay B or C, % inhibition (full-length human RORγt [4]; * 3 μM compound concentration): 97* %; IC50 (full-length human RORγt [4]): 7.9 nM |
| C[C@H]1CC(F)(F)CN1C(=O)c1nc(C(=O)NCC(C)(C)O)sc1-c1ccc(C(O)(C(F)(F)F)C(F)(F)F)c(Cl)c1Cl [Example 2/2, (S)-5-(2,3-Dichloro-4-(1,1,1,3,3,3-hexafluoro-2-hydroxypropan-2-yl)phenyl)-4-(4,4-difluoro-2-methylpyrrolidine-1-carbonyl)-N-(2-hydroxy-2-methylpropyl)thiazole-2-carboxamide] | 0.22 | – | 10 | RORγt (FL) Reporter Assay A, % inhibition (full-length human RORγt [3]; [5]): 101*** % |
| CN(C(=O)c1nc(C(=O)NCC(C)(C)O)sc1-c1ccc(C(O)(C(F)(F)F)C(F)(F)F)c(Cl)c1Cl)C1CCC1 [Example 2/13, N^4—Cyclobutyl-5-(2,3-dichloro-4-(1,1,1,3,3,3-hexafluoro-2-hydroxypropan-2-yl)phenyl)-N^Z-(2-hydroxy-2-methylpropyl)-N^4-methylthiazole-2,4-dicarboxamide] | 0.43 | – | 10 | RORγt (FL) Reporter Assay A, % inhibition (full-length human RORγt [3]; [5]): 103*** % |
| C[C@H]1CC(F)(F)CN1C(=O)c1nc(C(=O)N2C[C@H](O)C[C@H](O)C2)sc1-c1ccc(C(O)(C(F)(F)F)C(F)(F)F)cc1C(F)(F)F [Example 9/1, ((S)-4,4-Difluoro-2-methylpyrrolidin-1-yl)(2-((3R,5S)-3,5-dihydroxypiperidine-1-carbonyl)-5-(4-(1,1,1,3,3,3-hexafluoro-2-hydroxypropan-2-yl)-2-(trifluoromethyl)phenyl)thiazol-4-yl)methanone] | – | – | – | IC50 [1]: 13 nM |
| C[C@H]1CCCN1C(=O)c1nc(C(=O)NCC(C)(C)O)sc1-c1ccc(C(O)(C(F)(F)F)C(F)(F)F)cc1C(F)F [Example 15, (S)-5-(2-(Difluoromethyl)-4-(1,1,1,3-hexafluoro-2-hydroxypropan-2-yl)phenyl)-N-(2-hydroxy-2-methylpropyl)-4-(2-methylpyrrolidine-1-carbonyl)thiazole-2-carboxamide] | – | – | – | IC50 [1]: 47 nM |
| CCN(C(=O)c1nc(C(=O)NCC(C)(C)O)sc1-c1ccc(C(O)(C(F)(F)F)C(F)(F)F)c(Cl)c1Cl)C1CCC1 [Example 2/15, N^4—Cyclobutyl-5-(2,3-dichloro-4-(1,1,1,3,3,3-hexafluoro-2-hydroxypropan-2-yl)phenyl)-N^4-ethyl-N2-(2-hydroxy-2-methylpropyl)thiazole-2,4-dicarboxamide] | 0.18 | – | 5 | RORγt (FL) Reporter Assay A, % inhibition (full-length human RORγt [3]; [5]): 106*** % |
| Cc1cc(C(O)(C(F)(F)F)C(F)(F)F)ccc1-c1sc(C(=O)NCC(C)(C)O)nc1C(=O)N1CCCC[C@@H]1C [Example 21/2, (S)-5-(4-(1,1,1,3,3,3-Hexafluoro-2-hydroxypropan-2-yl)-2-methylphenyl)-N-(2-hydroxy-2-methylpropyl)-4-(2-methylpiperidine-1-carbonyl)thiazole-2-carboxamide] | 0.21 | – | – | RORγt (FL) Reporter Assay B or C, % inhibition (full-length human RORγt [4]; * 3 μM compound concentration): 101* %; IC50 (full-length human RORγt [4]): 3.9 nM |
| O=C(NC1CS(=O)(=O)C1)c1nc(C(=O)N2CCC(F)CC2)c(-c2ccc(C(O)(C(F)(F)F)C(F)(F)F)c(Cl)c2Cl)s1 [Example 6/1, 5-(2,3-Dichloro-4-(1,1,1,3,3,3-hexafluoro-2-hydroxypropan-2-yl)phenyl)-N-(1,1-dioxidothietan-3-yl)-4-(4-fluoropiperidine-1-carbonyl)thiazole-2-carboxamide] | – | – | – | IC50 [1]: 42 nM |
